Key:
[1] = molecular target: T1, hnRNP A1 binding to cyclin D1 or c-MYC IRES RNAs (Homo sapiens, UniProt P09651); assay: RNA-pull down assay with biotinylated cyclin D1 or c-MYC IRES RNAs; assay type: cell-based
T1 construct: endogenous in cells; host or cells: LN229 glioblastoma cells; 293T cells
Description: For immunopurification of eIF4E and bound RNA (21), cells were lysed in buffer containing 50 mM Tris-HCl (pH 7.4), 300 mM NaCl, 0.5% NP-40, 10 mM NaF, 1 mM sodium orthovanidate, 1 mM PMSF, 1.5% aprotinin and SUPERase-IN (ThermoFisher Scientific), 0.025 units/ml, using a Dounce homogenizer at 4° C. Extracts were cleared by centrifugation and immunoprecipitated with eIF4E or control IgG. Beads were washed and obtained RNA was subjected to quantitative RTPCR. For quantitative RT-PCR, extraction of RNA was performed using Trizol (ThermoFisher). Total RNA was then quantified and integrity assessed using an Agilent 2100 Bioanalyzer (Agilent Technology). Total RNA was reverse transcribed with random primers using the RETROscript Kit from ThermoFisher. SYBR Green quantitative PCR was performed in triplicate in 96-well optical plates on an ABI Prism 7000 Sequence Detection System (Life Technologies) according to the manufacturer's instructions. Primer sequences for CCND1, c-MYC and actin are available upon request. […]
(B) Schematic diagrams of the dicistronic constructs used in this study. […] Input and bound fractions were analyzed by immunoblotting using hnRNP A1 antibodies. […] Bound CCND1 or c-MYC RNAs were detected via RT-PCR. […]

[2] = molecular target: T2, UP1 fragment of hnRNP A1 / cyclin D1 or c-MYC IRES RNAs (Homo sapiens, UniProt P09651); assay: Filter binding assay of GST-tagged hnRNP A1 mutants with IRES RNAs; conditions: for association of UP1 fragment (a.a. 1-196) with cyclin D1 or c-MYC IRESs: GST-tagged protein
T2 construct: The UP1 fragment (a.a. 1-196) containing RRM1 and RRM2; made in house; host or cells: HEK293 cells
T2 sequence (P09651 1-196): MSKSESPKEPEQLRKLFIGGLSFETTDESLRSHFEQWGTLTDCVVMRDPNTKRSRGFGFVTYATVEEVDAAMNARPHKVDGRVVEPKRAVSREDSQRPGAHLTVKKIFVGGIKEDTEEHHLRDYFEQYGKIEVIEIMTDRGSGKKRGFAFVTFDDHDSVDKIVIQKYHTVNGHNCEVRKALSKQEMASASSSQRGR
Description: Filter binding assays were performed as previously described (18,23). GSTtagged hnRNP A1 or hnRNP A1 deletion mutants were added to in vitro transcribed 32Plabeled RNAs corresponding to either the cyclin D1 or c-MYC IRESs in separate reactions in a volume of 10 μl in buffer containing 5 mM HEPES (pH 7.6), 30 mM KCl, 2 mM MgCl2, 200 mM DTT, 4% glycerol and 10 ng yeast tRNA for 10 min at room temperature. 8 μl of each binding reaction was applied to nitrocellulose membranes on a slot blot apparatus (Minifold II, Schleicher & Schuell). Membranes were washed and dried, and signals quantified using a phosphorimager.
To begin to investigate the mechanism of action of C11 and IRES-J007, it was initially determined whether the UP1 fragment of hnRNP A1 was sufficient to recapitulate C11 or IRESJ007-mediated inhibition of IRES binding to this ITAF. The relative association between the mutant proteins and either the cyclin D1 or c-MYC IRESs was determined by filter binding assays in the absence or presence of the inhibitors (FIG. 4B). […] Additionally, a mutant encompassing residues 103-372, containing RRM2 bound both IRES sequences and binding was reduced in the presence of either of the inhibitors. […] The presence of RRM2 is necessary and appears to cooperate with RRM1 to mediate IRES binding that is sensitive to C11 or IRES-J007. Finally, UP1 is capable of IRES binding that is blocked by either C11 or the analog IRES-J007.
Mutant 1-196 constitutes the Up1 fragment of full-length human hnRNP A1. In the Δ130-158 mutant, the sequences encompassing RRM2 have been removed. (B) Binding of either cyclin D1 (top panel) or c-MYC (bottom panel) IRES RNAs to GST-tagged hnRNP A1 mutants in the absence or presence of C11 or IRES-J007 as assayed by filter binding. The mean and +SD are shown for three independent experiments.

[3] = system: LN229 cells; assay: Apoptosis via Annexin V staining in LN229; assay type: cell-based; conditions: LN229 cotreated with PP242 (50 nM) and analog (100 nM), 24 h

T1 sequence (P09651 whole entry): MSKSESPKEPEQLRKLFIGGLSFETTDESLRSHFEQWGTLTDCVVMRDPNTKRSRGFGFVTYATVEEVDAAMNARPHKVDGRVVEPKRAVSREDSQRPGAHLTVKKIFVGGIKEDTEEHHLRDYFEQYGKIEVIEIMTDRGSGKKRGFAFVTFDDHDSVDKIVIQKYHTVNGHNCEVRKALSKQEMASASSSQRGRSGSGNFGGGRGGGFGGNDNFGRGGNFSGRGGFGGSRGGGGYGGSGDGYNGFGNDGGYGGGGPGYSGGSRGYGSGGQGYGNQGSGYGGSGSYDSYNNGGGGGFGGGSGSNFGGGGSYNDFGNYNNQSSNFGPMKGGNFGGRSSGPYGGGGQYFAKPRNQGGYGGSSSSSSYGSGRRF

| SMILES | hnRNP A1 binding to cyclin D1 or c-MYC IRES RNAs ([1]; extracts of LN229 cells treated with 50 nM) | association of UP1 fragment (a.a. 1-196) with cyclin D1 or c-MYC IRESs [2] | % Apoptosis (100 nM) [3] | ability to block cyclin D1 or c-MYC IRES-hnRNP A1 interactions relative to C11 ([1]; 293T cell extracts) | ability to block UP1/IRES RNA interactions compared to C11 [2] |
| --- | --- | --- | --- | --- | --- |
| COc1ccc(CN2C(=O)C(Cl)=C(Cl)C2=O)c(OC)c1 [Compound C11, reference compound] | markedly reduced hnRNP A1 binding | blocked association | 25.9% |  |  |
| COc1ccc(CN2C(=O)c3ccccc3C2=O)c(OC)c1 [IRES-J007, 2-((2,4-Dimethoxyphenyl)methyl)isoindoline-1,3-dione] |  | blocked association | 62.4% | improved ability | modest, yet significant increase |
